Test results published in patent US20110201634A1, “DIHYDROPYRIDIMIDINONE COMPOUNDS FOR THE TREATMENT OF CARDIOVASCULAR DISEASES AND PROCESS FOR PREPARING THE SAME” (DELHI UNIVERSITY, priority 2008, published 2011).

Legend:
[1] = system: platelets (ADP-induced platelet aggregation); test: ADP-induced platelet aggregation, ex vivo after administration by gavage; details: po, suspended in water, sonicated, given by gavage, equimolar dose (40 μM), ADP 15 μM
Description: C. Preparation of Platelet Rich Plasma for the EX VIVO Studies

[2] = system: platelets (ADP-induced platelet aggregation); test: ADP-induced platelet aggregation, in vitro (platelet rich plasma); assay type: cell-based; details: test compounds equimolar (40 μM); ADP 15 μM
Description: Preparation of Platelet Rich Plasma for the IN VITRO Studies (7)

[3] = system: TAase; test: TAase activity; assay type: biochemical
[4] = system: intracellular nitric oxide level; test: Enhancement of intracellular nitric oxide; assay type: cell-based; details: equimolar (40 μM)

COC(=O)C(c1ccccc1Cl)N1CCc2sccc2C1 (centres unmarked)
inhibition at 40 µM [1]: 65% | ADP-induced Platelet aggregation (% inhibition) IN VITRO [2]: Nil | TAase Activity (Units) [3]: Nil | Enhancement of Nitric Oxide (folds) [4]: Nil

CC(=O)Oc1ccccc1C(=O)O
inhibition at 40 µM [1]: 55% | ADP-induced Platelet aggregation (% inhibition) IN VITRO [2]: Nil | TAase Activity (Units) [3]: Nil | Enhancement of Nitric Oxide (folds) [4]: Nil
